Results: PMC6131539, “Behavioral Effects of a Potential Novel TAAR1 Antagonist” (Frontiers in Pharmacology, 2018)

Columns and labels:
TAAR1-KO mice [1] = test: Stereotypic counts, co-injection with amphetamine, TAAR1-KO mice; assay type: in vivo; settings: only 15 mg/kg, co-injected with amphetamine 2 mg/kg
Experimental: (§1) Experimentally naïve mice, of at least 12 weeks of age, were used for all behavioral experiments. The mice were randomly assigned to treatment or control groups, balanced by sex and weight. Locomotor activity was assessed using the automated locomotor analysis monitors (Omnitech Electronics, Columbus, OH, United States). The apparatus included four open field monitors. Each Open Field monitor consisted of sets of 16 light beams arrayed in the horizontal X and Y axes. The hardware detected beams broken by the animal, which allowed the software to determine the location of the mouse in the cage. Total distance covered by mice was used to characterize locomotor activity of the animals. The monitors were divided into four compartments (20 cm × 20 cm). Animals were tested individually for defined periods with 5-min intervals. The mice were first weighed and then placed into the apparatus, allowing for 30 min habituation. […] The locomotor activity was then measured for additional 1 h. […]
Supplementary file Image_2.TIF: FIGURE S2 In vivo studies with TAAR1-KO mice and compound 22 on stereotypic counts activity. […] The sum of stereotypic counts was assessed over 60 min after the injection of amphetamine and compound 22 in WT (solid bars) or TAAR1-KO mice (spotted bars). […] The sum of stereotypic counts was assessed over 60 min following the injection in WT (solid bars) or TAAR1-KO mice (dotted bars). […]

C57BL/6J mice [2] = test: Stereotypic counts, co-injection with cocaine, C57BL/6J mice; assay type: in vivo; settings: 5 and 25 mg/kg co-injected with cocaine 10 mg/kg; sum over 60 min
[3] = system: WT littermates (C57BL/6J × 129S2/Sv); test: Cocaine-induced locomotor activity, co-injection, WT littermates; assay type: in vivo, mice; settings: 5, 15 and 25 mg/kg co-injected with cocaine 10 mg/kg
Experimental: (§2) The Taarl^-/- (TAAR1-KO) mice were obtained from Lundbeck ([Wolinsky et al., 2007]). All wild type (WT) and TAAR1-KO mice used for experiments were generated from TAAR1-KO heterozygous mice in a C57BL/6J x 129S1/Sv mixed background.
as §1
The locomotor activity was assessed for 60 min following the injection. […]

TAAR1-KO mice [4] = test: Amphetamine-induced locomotor activity, co-injection, TAAR1-KO mice; assay type: in vivo; settings: 15 mg/kg co-injected with amphetamine 2 mg/kg, p = 0.004
Experimental: as §2
(§3) Experimentally naïve mice, of at least 12 weeks of age, were used for all behavioral experiments. The mice were randomly assigned to treatment or control groups, balanced by sex and weight. Locomotor activity was assessed using the automated locomotor analysis monitors (Omnitech Electronics, Columbus, OH, United States). The apparatus included four open field monitors. Each Open Field monitor consisted of sets of 16 light beams arrayed in the horizontal X and Y axes. The hardware detected beams broken by the animal, which allowed the software to determine the location of the mouse in the cage. Total distance covered by mice was used to characterize locomotor activity of the animals. The monitors were divided into four compartments (20 cm × 20 cm). Animals were tested individually for defined periods with 5-min intervals. The mice were first weighed and then placed into the apparatus, allowing for 30 min habituation. Following the habituation, the mice were removed from the al apparatus and injected with drugs (see below for administration) or vehicle and returned immediately to the locomotor chamber.

C57BL/6J mice [5] = test: Cocaine-induced locomotor activity, co-injection, C57BL/6J mice; assay type: in vivo; settings: 60 min
Experimental: as §3, with “chamber. The locomotor activity was then measured for additional 1 h. After the experiments, the animals were euthanized by cervical dislocation.” for “chamber.”
All drug solutions were prepared freshly on the day of the experiment and injected i.p. at the volume of 10 ml/kg. […] Amphetamine was dissolved in 0.9% saline at a concentration of 0.2 mg/mL.
Since compound 22 enhanced amphetamine-induced locomotor response, we assessed if compound 22 could also enhance cocaine-induced locomotion in WT C57BL/6J mice (Figure 3).
The locomotor activity was assessed for 60 min after the injection. […] Data are means ± SEM; N = 7–9. One way ANOVA was performed [F(3,28) = 7.138, p = 0.001] followed by Dunnett’s post hoc analyses (^∗p < 0.05, ^∗∗∗p < 0.001).

TAAR1 = system: TAAR1; parameters: method as in Lam et al., 2015b; settings: previous study; ref Lam et al., 2015b; read-out: IC50 (TAAR1 antagonist); cited from earlier work
[6] = system: WT littermates (C57BL/6J × 129S2/Sv); test: Amphetamine-induced locomotor activity, co-injection, WT littermates; assay type: in vivo, mice; settings: 5 mg/kg co-injected with amphetamine 2 mg/kg, p = 0.049
Experimental: as §2, §3

Structure (SMILES): Clc1ccc(CNCc2ccc(Cn3cncn3)cc2)c(Cl)c1 [compound 22]
- stereotypic counts (TAAR1-KO mice [1]): statistically significant increase in stereotypic counts
- stereotypic counts (C57BL/6J mice [2]): increase in stereotypic counts
- effect on locomotor stimulating effects of cocaine [3]: significantly potentiate
- potentiation of locomotor stimulating effects of amphetamine (TAAR1-KO mice [4]): 84%
- increase in cocaine-induced locomotor activity (C57BL/6J mice [5]; 5 mg/kg i.p. co-injected with cocaine 10 mg/kg, p = 0.03): 77%
- increase in cocaine-induced locomotor activity (C57BL/6J mice [5]; 15 mg/kg i.p. co-injected with cocaine 10 mg/kg, p = 0.02): 84%
- increase in cocaine-induced locomotor activity (C57BL/6J mice [5]; 25 mg/kg i.p. co-injected with cocaine 10 mg/kg, p = 0.003): 124%
- IC50 (TAAR1): > 100 µM
- potentiation of amphetamine locomotor response [6]: 44%
